According to patent US4704400A, “Medicarpin derivatives and analogs” (Merck & Co., Inc., priority 1986, dated 1987):

Tests used:
prostaglandin = conditions: isolated from Dalbergia Odorifera T. Chen.; cited from earlier work
[1] = system: thromboxane B2 production in CXBG cells; experiment: Inhibition of CXBG prostoglandin production (thromboxane B2 by enzyme immunoassay, A23187-stimulated cells); assay type: cell-based, mice; conditions: A23187 stimulation 10 minutes at 37°, inhibitor preincubated 5 minutes
Description: (§1) Representative compounds of Formula I have been tested using the following assay to determine their mammalian leukotriene biosynthesis inhibiting activity and other relevant activities:
(§2) CXBG cells grown intraperitoneally in CB4 B6 /F1 /J mice were washed 5 times in Dulbeccos phosphate buffered saline without calcium or magnesium, suspended in medium 199 (Gibco) at 2×10^6 cells/ml, and incubated 15 minutes at 37°. Inhibitor solutions in methanol were incubated with the cells (10 μl/600 μl cells), for 5 minutes at 37°, and the cells were stimulated with 60 μl A23187 (50 μg/ml) for 10 minutes at 37°. Aliquots were removed for measurement of leukotriene C4 or thromboxane B2 by enzyme immunoassay as previously reported (D. K. Miller, et al., J. Immunological Methods, 81, 169-185, 1985). The percentage inhibition was calculated by the following: [formula]
(§3) IC50 s were determined graphically.

[2] = system: leukotriene C4 production in CXBG cells; experiment: Inhibition of CXBG leukotriene production (leukotriene C4 by enzyme immunoassay, A23187-stimulated cells); assay type: cell-based, mice; conditions: A23187 stimulation 10 minutes at 37°, inhibitor preincubated 5 minutes
Description: as §1, §2, §3

Compound	prostaglandin inhibition (prostaglandin)	IC50, TXB2 [1]	IC50, LTC4 [2]
COc1ccc2c(c1)O[C@H]1c3ccc(O)cc3OC[C@@H]21 (relative stereo) [medicarpin]	negative results	–	–
(iso)medicarpin	–	> 5 µg/mL	0.1 µg/mL
